The values below come from US8673906B2, “Chromenone derivatives” (AstraZeneca AB, priority 2010, dated 2014).

This assay has as its target PI3Kβ (Homo sapiens (Human), UniProt P42338). Nature of the assay: In vitro enzyme inhibition assay (Kinase Glo based enzyme activity assay). The assay is classed as biochemical. The note with it: Test (a), human recombinant enzyme; read-out: PI3Kβ inhibition, IC50. As for the experimental part: (a) In Vitro Enzyme Inhibition Assay
The inhibition of PI3Kβ, PI3Kα, PI3Kγ and PI3Kδ was evaluated in a Kinase Glo based enzyme activity assay using human recombinant enzymes. The assay measures depletion of ATP after incubation with enzyme, PIP2 and ATP plus compound. ATP at the end of the reaction is detected by addition of Kinase Glo reagent, in this the Ultra Glo™ luciferase (Promega) uses the ATP as a substrate to catalyze the mono-oxygenation of luciferin and the generation of light. A direct relationship exists between the luminescence measured with the Kinase-Glo Plus Reagent and the amount of ATP remaining in a completed kinase reaction and luminescence is inversely related to kinase activity. Twelve different compound concentrations were tested and raw data from the inhibition of PI3 Kb, PI3Kα, PI3Kγ and PI3Kδ was plotted versus inhibitor concentration.
Compounds in 100% DMSO were added to assay plates by acoustic dispensing. PI3Kβ was added in a Tris buffer (50 mM Tris pH7.4, 0.05% CHAPS, 2.1 mM DTT, and 10 mM MgCl2) and allowed to preincubate with compound for 20 minutes prior to addition of substrate solution containing PIP2 and ATP. The enzyme reaction was stopped after 80 minutes by the addition of Kinase Glo detection solution. Plates were left for 30 minutes at room temperature then read on a Pherastar Instrument (Luminescence ATP 384 program) setting gain on max well. The final concentration of DMSO, ATP and PIP2 in the assay were, 1%, 80 μM, and 80 μM respectively.
IC50 values were calculated using a log curve fitting to a non-linear regression package, fitting raw data to inhibitor concentration.
Background: Kinase-Glo reads ATP consumption through a luciferase reaction.

PI3Kβ, sequence (P42338 whole entry): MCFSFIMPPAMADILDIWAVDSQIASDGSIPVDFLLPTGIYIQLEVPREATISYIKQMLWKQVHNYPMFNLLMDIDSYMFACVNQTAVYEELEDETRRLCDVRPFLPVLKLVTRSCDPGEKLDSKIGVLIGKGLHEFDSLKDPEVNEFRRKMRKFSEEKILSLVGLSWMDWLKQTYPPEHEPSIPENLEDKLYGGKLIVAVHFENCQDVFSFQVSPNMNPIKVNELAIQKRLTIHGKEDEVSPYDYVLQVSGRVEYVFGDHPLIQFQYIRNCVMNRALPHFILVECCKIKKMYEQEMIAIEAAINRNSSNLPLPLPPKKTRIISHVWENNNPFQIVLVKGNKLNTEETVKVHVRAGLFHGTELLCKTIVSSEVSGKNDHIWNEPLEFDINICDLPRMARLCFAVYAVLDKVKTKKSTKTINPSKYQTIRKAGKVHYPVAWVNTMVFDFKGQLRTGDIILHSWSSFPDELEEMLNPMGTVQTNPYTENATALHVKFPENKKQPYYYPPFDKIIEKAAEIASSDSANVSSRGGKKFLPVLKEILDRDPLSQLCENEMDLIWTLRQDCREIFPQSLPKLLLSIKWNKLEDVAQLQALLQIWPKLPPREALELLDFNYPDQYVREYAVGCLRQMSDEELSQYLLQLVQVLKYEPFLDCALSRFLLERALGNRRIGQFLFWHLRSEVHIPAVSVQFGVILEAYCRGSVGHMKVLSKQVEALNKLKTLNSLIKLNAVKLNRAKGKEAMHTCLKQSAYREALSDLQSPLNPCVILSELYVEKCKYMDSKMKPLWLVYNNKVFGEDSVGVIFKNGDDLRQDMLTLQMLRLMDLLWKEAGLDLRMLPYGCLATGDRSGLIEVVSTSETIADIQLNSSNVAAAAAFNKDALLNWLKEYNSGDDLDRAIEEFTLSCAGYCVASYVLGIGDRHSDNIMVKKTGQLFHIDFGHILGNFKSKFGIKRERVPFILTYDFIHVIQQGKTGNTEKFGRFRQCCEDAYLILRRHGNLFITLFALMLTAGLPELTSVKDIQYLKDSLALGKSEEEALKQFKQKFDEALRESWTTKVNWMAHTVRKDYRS
PI3Kβ, sequence (P27986 whole entry partner): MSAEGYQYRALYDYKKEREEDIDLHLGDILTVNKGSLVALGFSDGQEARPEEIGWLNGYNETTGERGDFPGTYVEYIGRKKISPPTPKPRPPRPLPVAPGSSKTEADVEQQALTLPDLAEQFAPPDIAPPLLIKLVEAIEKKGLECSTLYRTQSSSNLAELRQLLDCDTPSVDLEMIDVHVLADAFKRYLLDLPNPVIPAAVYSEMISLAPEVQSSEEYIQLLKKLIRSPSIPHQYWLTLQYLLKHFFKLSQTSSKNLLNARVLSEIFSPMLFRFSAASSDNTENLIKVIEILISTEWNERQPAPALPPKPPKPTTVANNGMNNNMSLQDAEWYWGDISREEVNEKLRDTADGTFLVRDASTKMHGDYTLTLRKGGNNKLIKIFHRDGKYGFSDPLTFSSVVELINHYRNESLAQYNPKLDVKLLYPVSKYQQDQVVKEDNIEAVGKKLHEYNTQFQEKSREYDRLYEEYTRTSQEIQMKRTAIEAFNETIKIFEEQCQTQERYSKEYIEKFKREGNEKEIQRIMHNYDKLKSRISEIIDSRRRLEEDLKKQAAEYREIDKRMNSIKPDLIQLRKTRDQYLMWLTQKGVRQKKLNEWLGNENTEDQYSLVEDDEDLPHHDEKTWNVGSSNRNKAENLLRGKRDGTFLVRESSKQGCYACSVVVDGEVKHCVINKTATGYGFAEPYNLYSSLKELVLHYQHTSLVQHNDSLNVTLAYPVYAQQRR

For orientation: IC50 means the concentration that inhibits the measured activity by half. Take `Cc1cc(F)cc(NC(C)c2cc(C(=O)N(C)C)cc3c(=O)cc(N4CCOCC4)oc23)c1` (stereo not drawn) [Example 3.16, 8-(1-(3-fluoro-5-methylphenylamino)ethyl)-N,N-dimethyl-2-morpholino-4-oxo-4H-chromene-6-carboxamide]: the IC50 was 5 nM.
Turning to `CC(Nc1cccc(C#N)c1)c1cc(C(=O)N(C)C)cc2c(=O)cc(N3CCOCC3)oc12` (stereo not drawn) [Example 3.18, 8-(1-(3-cyanophenylamino)ethyl)-N,N-dimethyl-2-morpholino-4-oxo-4H-chromene-6-carboxamide], the half-inhibitory concentration (IC50) was 10 nM.
With `CC(Nc1cccc(Cl)c1Cl)c1cc(C(=O)N(C)C)cc2c(=O)cc(N3CCOCC3)oc12` (stereo not drawn) [Example 3.19, 8-(1-(2,3-dichlorophenylamino)ethyl)-N,N-dimethyl-2-morpholino-4-oxo-4H-chromene-6-carboxamide] the figure was 5 nM; with `C#Cc1cccc(NC(C)c2cc(C(=O)N(C)C)cc3c(=O)cc(N4CCOCC4)oc23)c1` (stereo not drawn) [Example 3.20, 8-(1-(3-ethynylphenylamino)ethyl)-N,N-dimethyl-2-morpholino-4-oxo-4H-chromene-6-carboxamide], 5 nM.
For `Cc1ccc(C#N)cc1NC(C)c1cc(C(=O)N(C)C)cc2c(=O)cc(N3CCOCC3)oc12` (stereo not drawn) [Example 3.21, 8-(1-(5-cyano-2-methylphenylamino)ethyl)-N,N-dimethyl-2-morpholino-4-oxo-4H-chromene-6-carboxamide] the value was 114 nM.
Turning to `Cc1ccc(F)cc1NC(C)c1cc(C(=O)N(C)C)cc2c(=O)cc(N3CCOCC3)oc12` (stereo not drawn) [Example 3.22, 8-(1-(5-fluoro-2-methylphenylamino)ethyl)-N,N-dimethyl-2-morpholino-4-oxo-4H-chromene-6-carboxamide], the IC50 was 4 nM.
With `Cc1cc(C#N)cc(NC(C)c2cc(C(=O)N(C)C)cc3c(=O)cc(N4CCOCC4)oc23)c1` (stereo not drawn) [Example 3.23, 8-(1-(3-cyano-5-methylphenylamino)ethyl)-N,N-dimethyl-2-morpholino-4-oxo-4H-chromene-6-carboxamide] the figure was 13 nM; with `COc1ccc(F)cc1NC(C)c1cc(C(=O)N(C)C)cc2c(=O)cc(N3CCOCC3)oc12` (stereo not drawn) [Example 3.24, 8-(1-(5-fluoro-2-methoxyphenylamino)ethyl)-N,N-dimethyl-2-morpholino-4-oxo-4H-chromene-6-carboxamide], 6 nM.
As for `COc1ccc(C#N)cc1NC(C)c1cc(C(=O)N(C)C)cc2c(=O)cc(N3CCOCC3)oc12` (stereo not drawn) [Example 3.25, 8-(1-(5-cyano-2-methoxyphenylamino)ethyl)-N,N-dimethyl-2-morpholino-4-oxo-4H-chromene-6-carboxamide], the IC50 stood at 212 nM.
For the compound `CC(Nc1cc(F)ccc1Cl)c1cc(C(=O)N(C)C)cc2c(=O)cc(N3CCOCC3)oc12` (stereo not drawn) [Example 3.26, 8-(1-(2-chloro-5-fluorophenylamino)ethyl)-N,N-dimethyl-2-morpholino-4-oxo-4H-chromene-6-carboxamide], the IC50 was 4 nM.
With `CC(Nc1c(F)ccc(F)c1F)c1cc(C(=O)N(C)C)cc2c(=O)cc(N3CCOCC3)oc12` (stereo not drawn) [Example 3.27, N,N-dimethyl-2-morpholino-4-oxo-8-(1-(2,3,6-trifluorophenylamino)ethyl)-4H-chromene-6-carboxamide] the figure was 9 nM; with `Cc1ccc(Cl)cc1NC(C)c1cc(C(=O)N(C)C)cc2c(=O)cc(N3CCOCC3)oc12` (stereo not drawn) [Example 3.28, 8-(1-(5-chloro-2-methylphenylamino)ethyl)-N,N-dimethyl-2-morpholino-4-oxo-4H-chromene-6-carboxamide], 4 nM.
With `Cc1c(C#N)cccc1NC(C)c1cc(C(=O)N(C)C)cc2c(=O)cc(N3CCOCC3)oc12` (stereo not drawn) [Example 3.29, 8-(1-(3-cyano-2-methylphenylamino)ethyl)-N,N-dimethyl-2-morpholino-4-oxo-4H-chromene-6-carboxamide] the figure was 5 nM; with `COc1cc(F)cc(NC(C)c2cc(C(=O)N(C)C)cc3c(=O)cc(N4CCOCC4)oc23)c1` (stereo not drawn) [Example 3.30, 8-(1-(3-fluoro-5-methoxyphenylamino)ethyl)-N,N-dimethyl-2-morpholino-4-oxo-4H-chromene-6-carboxamide], 4 nM; with `COc1c(F)cccc1NC(C)c1cc(C(=O)N(C)C)cc2c(=O)cc(N3CCOCC3)oc12` (stereo not drawn) [Example 3.31, 8-(1-(3-fluoro-2-methoxyphenylamino)ethyl)-N,N-dimethyl-2-morpholino-4-oxo-4H-chromene-6-carboxamide], 6 nM.
On to `CC(Nc1c(F)ccc(Cl)c1F)c1cc(C(=O)N(C)C)cc2c(=O)cc(N3CCOCC3)oc12` (stereo not drawn) [Example 3.32, 8-(1-(3-chloro-2,6-difluorophenylamino)ethyl)-N,N-dimethyl-2-morpholino-4-oxo-4H-chromene-6-carboxamide], for which the concentration for half-maximal inhibition (IC50) amounted to 8 nM.
For `CC(Nc1cc(Cl)cc(Cl)c1)c1cc(C(=O)N(C)C)cc2c(=O)cc(N3CCOCC3)oc12` (stereo not drawn) [Example 3.33, 8-(1-(3,5-dichlorophenylamino)ethyl)-N,N-dimethyl-2-morpholino-4-oxo-4H-chromene-6-carboxamide] the value was 5 nM; for `C#Cc1cc(F)cc(NC(C)c2cc(C(=O)N(C)C)cc3c(=O)cc(N4CCOCC4)oc23)c1` (stereo not drawn) [Example 3.34, 8-(1-(3-ethynyl-5-fluorophenylamino)ethyl)-N,N-dimethyl-2-morpholino-4-oxo-4H-chromene-6-carboxamide], 4 nM; for `CC(Nc1cc(F)ccc1C#N)c1cc(C(=O)N(C)C)cc2c(=O)cc(N3CCOCC3)oc12` (stereo not drawn) [Example 3.35, 8-(1-(2-cyano-5-fluorophenylamino)ethyl)-N,N-dimethyl-2-morpholino-4-oxo-4H-chromene-6-carboxamide], 31 nM.
Take `CC(Nc1cccc(F)c1C#N)c1cc(C(=O)N(C)C)cc2c(=O)cc(N3CCOCC3)oc12` (stereo not drawn) [Example 3.36, 8-(1-(2-cyano-3-fluorophenylamino)ethyl)-N,N-dimethyl-2-morpholino-4-oxo-4H-chromene-6-carboxamide]: the IC50 was found to be 24 nM.
In the case of `CC(c1cc(C(=O)N(C)C)cc2c(=O)cc(N3CCOCC3)oc12)N(C)c1cc(F)cc(Cl)c1` (stereo not drawn) [Example 3.37, 8-(1-((3-chloro-5-fluorophenyl)(methyl)amino)ethyl)-N,N-dimethyl-2-morpholino-4-oxo-4H-chromene-6-carboxamide], the IC50 came to 12 nM.
With `CC(c1cc(C(=O)N(C)C)cc2c(=O)cc(N3CCOCC3)oc12)N(C)c1cc(F)c(F)c(F)c1` (stereo not drawn) [Example 3.38, N,N-dimethyl-8-(1-(methyl(3,4,5-trifluorophenyl)amino)ethyl)-2-morpholino-4-oxo-4H-chromene-6-carboxamide] the figure was 17 nM; with `CC(c1cc(C(=O)N(C)C)cc2c(=O)cc(N3CCOCC3)oc12)N(C)c1cc(F)cc(F)c1F` (stereo not drawn) [Example 3.39, N,N-dimethyl-8-(1-(methyl(2,3,5-trifluorophenyl)amino)ethyl)-2-morpholino-4-oxo-4H-chromene-6-carboxamide], 21 nM; with `CC(c1cc(C(=O)N(C)C)cc2c(=O)cc(N3CCOCC3)oc12)N(C)c1ccccc1` (stereo not drawn) [Example 3.40, N,N-dimethyl-8-(1-(methyl(phenyl)amino)ethyl)-2-morpholino-4-oxo-4H-chromene-6-carboxamide], 43 nM.
For `C#Cc1cc(F)cc(N(C)C(C)c2cc(C(=O)N(C)C)cc3c(=O)cc(N4CCOCC4)oc23)c1` (stereo not drawn) [Example 3.41, 8-(1-((3-ethynyl-5-fluorophenyl)(methyl)amino)ethyl)-N,N-dimethyl-2-morpholino-4-oxo-4H-chromene-6-carboxamide] the value was 14 nM; for `CCN(CC)C(=O)c1cc(C(C)Nc2cc(F)cc(F)c2)c2oc(N3CCOCC3)cc(=O)c2c1` (stereo not drawn) [Example 4.01, 8-(1-(3,5-difluorophenylamino)ethyl)-N,N-diethyl-2-morpholino-4-oxo-4H-chromene-6-carboxamide], 4 nM; for `CC(Nc1cc(F)cc(F)c1)c1cc(C(=O)N2CCN(C)CC2)cc2c(=O)cc(N3CCOCC3)oc12` (stereo not drawn) [Example 4.03, 8-(1-(3,5-difluorophenylamino)ethyl)-6-(4-methylpiperazine-1-carbonyl)-2-morpholino-4H-chromen-4-one], 4 nM.
For `CC(Nc1cc(F)cc(F)c1)c1cc(C(=O)N2CCNCC2)cc2c(=O)cc(N3CCOCC3)oc12` (stereo not drawn) [Example 4.04, 8-(1-(3,5-difluorophenylamino)ethyl)-2-morpholino-6-(piperazine-1-carbonyl)-4H-chromen-4-one] the value was 4 nM; for `CC(Nc1cc(F)cc(F)c1)c1cc(C(=O)N2CCSCC2)cc2c(=O)cc(N3CCOCC3)oc12` (stereo not drawn) [Example 4.05, 8-(1-(3,5-difluorophenylamino)ethyl)-2-morpholino-6-(thiomorpholine-4-carbonyl)-4H-chromen-4-one], 8 nM; for `CC(Nc1cc(F)cc(F)c1)c1cc(C(=O)N2CCCCCC2)cc2c(=O)cc(N3CCOCC3)oc12` (stereo not drawn) [Example 4.06, 6-(azepane-1-carbonyl)-8-(1-(3,5-difluorophenylamino)ethyl)-2-morpholino-4H-chromen-4-one], 4 nM.
